Assay results as given in article PMC8742467, “Therapeutical interference with the epigenetic landscape of germ cell tumors: a comparative drug study and new mechanistical insights” (Clinical Epigenetics, 2022).

How the values were obtained:
Type in all cases: cell-based, Human
GCT cell lines = experiment: XTT cell viability assay, GCT cell lines (pre-screen / summary); settings: first pre-screen, XTT; read-out: EC50
Protocol: The […] (XTT) assays were performed as described previously. In summary, for GCT and fibroblast cell lines 5 × 10^3 cells (3 × 10^3 for UC, PCa and RCC cell lines) per 96-well were seeded and different drug concentrations (see Additional file 2: Fig. S2, Additional file 3: Fig. S3) or corresponding solvents were added to the cells the following day. For drug details see Additional file 12: Table S2 C. Each condition was analyzed in four technical replicates and EC50 values were calculated by GraphPad Prism v8.

CC (JAR) = experiment: Flow cytometry apoptosis (Annexin V/PI), CC; settings: EC50, 16 h
Protocol: (§1) For Annexin V/PI staining, cells were washed with Annexin V Binding Buffer before being resuspended in 70 µl Annexin V Binding Buffer and 2.5 μl Annexin V FITC-conjugate (both Miltenyi Biotec, Bergisch Gladbach, Germany) and 15 µg PI (Sigma-Aldrich, Taufkirchen, Germany) and incubated in the dark at room temperature for 15 min. 500 µl of Annexin V Binding Buffer was added before measurement. For the cell cycle analysis, cells were washed with PBS (phosphate buffered saline), fixed by ice cold 70% ethanol and stained with 2 µg/ml PI and 200 µg/ml RNaseA (Quiagen, Hilden, Germany 100 mg/ml) in PBS shortly before every measurement. At least 5 × 10^4 cells were counted and analyzed using the MACSQuant software v 2.13.0.

YST (GCT72) = experiment: Flow cytometry apoptosis (Annexin V/PI), YST; settings: EC50, 16 h
Protocol: as §1

fibroblast control cells = experiment: Flow cytometry apoptosis (Annexin V/PI), fibroblasts; settings: EC50, 16 h
Protocol: as §1

GCT cells = experiment: Flow cytometry cell cycle (PI), GCT cells; settings: EC50, 16 h
Protocol: as §1

In the case of `Cc1ccc(-n2sc3ccccc3c2=O)cc1` [PBIT], the EC50 (GCT cell lines) is reported as no more than 50 µM, the “apoptosis induction in JAR” value (CC (JAR)) is reported as “negligible” and the “apoptosis induction in GCT72” value (YST (GCT72)) is reported as “negligible”. The “apoptosis induction in fibroblast control cells” value (fibroblast control cells) was “only a weak apoptosis induction” and the “cell cycle phase accumulation in GCT cells” value (GCT cells) was “accumulated in the G0/G1 phase”.
